Test results taken from publication PMC9250534, “Synthesis and direct assay of large macrocycle diversities by combinatorial late-stage modification at picomole scale” (Nature Communications, 2022).
Several values for one entry are separate records, joined by “and”; a condition that tells them apart may be missing. Equal entries are not always repeated. Where two headings read alike, the source gives them in different places.

Columns and labels:
thrombin [1] = target: T1, thrombin (Homo sapiens, UniProt P00734); test: Thrombin inhibition screen of crude macrocycle reactions (residual thrombin activity, fluorogenic substrate Z-Gly-Gly-Arg-AMC); format: biochemical; conditions: 10 µM macrocycle concentration, macrocycles containing acid 14, crude reaction
T1 construct: consists of two polypeptide chains of 36 (light chain) and 259 amino acid
Procedure, shortened: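 Residual activity was measured as the AMC release rate after adding 50 μM Z-Gly-Gly-Arg-AMC. This followed a 10-min room-temperature preincubation of 2 nM thrombin with 10 μM single macrocycles in pH 7.4 Tris buffer (0.6% DMSO). Percent inhibition was taken against the mean slope of DMSO controls.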

thrombin [2] = target: T1, thrombin; test: Determination of Kis of purified thrombin inhibitors (IC50, Cheng-Prusoff); format: biochemical; conditions: for % thrombin activity: replicates 1-3; for IC50 / Ki: thrombin; for Ki: Cheng-Prusoff
Procedure: Purified thrombin inhibitors (10 mM in DMSO) were diluted to 80 μM in 125 μL of Tris buffer (100 mM Tris-Cl, 150 mM NaCl, 10 mM MgCl2, 1 mM CaCl2) containing 0.1% w/v BSA, 0.01% v/v Triton-X100 and […]. The macrocycles were diluted two-fold in Tris buffer containing 0.1% w/v BSA, 0.01% v/v Triton-X100 and 1% DMSO in buffer. The thrombin activity was measured in 96-well plates (Greiner, 655101) and the residual activity calculated as described above in the assay used to measure activities of HPLC-separated fractions of screening hits.
Supplementary Figure 7. Thrombin inhibitors M1 to M5. a, Chemical structures and analytical HPLC chromatograms obtained using a 0-100% MeCN/H2O gradient over 15 minutes. b, For all macrocycles, an 18 -point, two-fold serial dilution was performed in 50 µL volumes. Thrombin was added (50 µL, 2 nM final conc.), followed 10 minutes later by fluorogenic substrate Z -Gly-Gly-Arg-AMC (50 µL, 50 µM final conc.). The increase in fluorescence was measured over 30 minutes.
Residual thrombin activity was determined by dividing the slope of fluorescenc e intensity over time for each well by the slope of control wells without macrocycle. Mean values and SDs are indicated for three independent thrombin inhibition measurements.
(1 picture or pasted object on this page, not shown here)

MDM2 = MDM2 (Homo sapiens, UniProt Q00987); test: Competition binding of M10 and nutlin-3a (F-M10 or FP53 probe displacement from MDM2, FP); conditions: for F-M10 displacement (values are anisotropy): F-M10 macrocycle probe; for F-M10 displacement (values are anisotropy) / FP53 displacement (values are anisotropy): duplicates -1/-2; for FP53 displacement (values are anisotropy): FP53 linear peptide probe
Chain of MDM2 (Q00987 whole entry): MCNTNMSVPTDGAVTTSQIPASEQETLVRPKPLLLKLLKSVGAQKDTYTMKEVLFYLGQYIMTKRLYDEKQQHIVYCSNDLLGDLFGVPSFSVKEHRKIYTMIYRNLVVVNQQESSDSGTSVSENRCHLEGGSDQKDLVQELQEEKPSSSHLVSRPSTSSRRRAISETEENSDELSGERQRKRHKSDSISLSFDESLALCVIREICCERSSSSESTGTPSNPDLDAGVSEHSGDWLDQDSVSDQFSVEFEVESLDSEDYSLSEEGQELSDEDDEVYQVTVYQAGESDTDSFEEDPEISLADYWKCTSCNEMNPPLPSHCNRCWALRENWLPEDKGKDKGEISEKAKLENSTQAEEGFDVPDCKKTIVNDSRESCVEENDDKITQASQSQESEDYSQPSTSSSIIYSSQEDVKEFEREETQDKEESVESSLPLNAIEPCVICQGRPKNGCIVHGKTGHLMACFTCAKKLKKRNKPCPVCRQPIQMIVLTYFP
Procedure: With the fluorescein conjugate, we also performed a competition experiment with nutlin-3a that binds to a defined hydrophobic pocket of MDM2[34] and is a precursor of nutlin-based clinical candidates.
Supplementary Figure 13. Studying the binding site of M10 by competition binding
by fluorescence polarization. The displacement was measured in two independent experiments
The displacement was measured in two

## O=C1CCSSCCNC(=O)C(CNC(=O)c2ccc(Cl)s2)NC(=O)c2cccc(c2)CNC(=O)C(Cc2ccccc2)N1 (stereo not drawn) [M2]
Thrombin [1]; original screen
  % thrombin activity, Original screen: 6.9%
Thrombin [1]; replicate reaction and screen
  % thrombin activity, Repeat screen: 6.5%
Thrombin [2]; Log [Macrocycle] M -8.8
  % thrombin activity: 99.5% and 97.4% and 98.4%
Thrombin [2]; Log [Macrocycle] M -9.1
  % thrombin activity: 100.1% (2×) and 99.4%
Thrombin [2]; Log [Macrocycle] M -9.4
  % thrombin activity: 100.7% and 100.1% and 99.7%
Thrombin [2]; Log [Macrocycle] M -9.7
  % thrombin activity: 100.6% and 99.6% and 99.8%
Thrombin [2]; Log[Macrocycle] M -4.6
  % thrombin activity: 3.5% and 3.8% and 4.4%
Thrombin [2]; Log[Macrocycle] M -4.9
  % thrombin activity: 4.9% (2×) and 5.4%
Thrombin [2]; Log[Macrocycle] M -5.2
  % thrombin activity: 6.7% and 6.5% and 7.1%
Thrombin [2]; Log[Macrocycle] M -5.5
  % thrombin activity: 9.9% and 8.4% and 9.6%
Thrombin [2]; Log[Macrocycle] M -5.8
  % thrombin activity: 16.3% and 13.3% and 13.6%
Thrombin [2]; Log[Macrocycle] M -6.1
  % thrombin activity: 26.3% and 21.4% and 21.2%
Thrombin [2]; Log[Macrocycle] M -6.4
  % thrombin activity: 42.5% and 32.8% and 34.8%
Thrombin [2]; Log[Macrocycle] M -6.7
  % thrombin activity: 58.0% and 47.2% and 49.8%
Thrombin [2]; Log[Macrocycle] M -7.0
  % thrombin activity: 71.8% and 64.0% and 65.5%
Thrombin [2]; Log[Macrocycle] M -7.3
  % thrombin activity: 83.6% and 77.5% and 79.8%
Thrombin [2]; Log[Macrocycle] M -7.6
  % thrombin activity: 92.7% and 85.4% and 86.8%
Thrombin [2]; Log[Macrocycle] M -7.9
  % thrombin activity: 95.0% and 92.0% and 93.5%
Thrombin [2]; Log[Macrocycle] M -8.2
  % thrombin activity: 99.2% and 94.0% and 94.1%
Thrombin [2]; Log[Macrocycle] M -8.5
  % thrombin activity: 98.9% and 96.9% and 97.6%
Thrombin [2]; average of 3 replicates, read-out: IC50 (nM) Average
  IC50: 214 nM
Thrombin [2]; replicate 1, read-out: Ki (nM) Replicate 1
  Ki: 210 nM
Thrombin [2]; replicate 1, read-out: IC50 (nM) Replicate 1
  IC50: 270 nM
Thrombin [2]; replicate 2, read-out: Ki (nM) Replicate 2
  Ki: 138 nM
Thrombin [2]; replicate 2, read-out: IC50 (nM) Replicate 2
  IC50: 179 nM
Thrombin [2]; replicate 3, read-out: Ki (nM) Replicate 3
  Ki: 149 nM
Thrombin [2]; replicate 3, read-out: IC50 (nM) Replicate 3
  IC50: 193 nM

## Nutlin
MDM2; Log[Inhibitor] M -4.0
  F-M10 displacement (values are anisotropy): 71 and 53
  FP53 displacement (values are anisotropy): 13 and 15
MDM2; Log[Inhibitor] M -4.3
  F-M10 displacement (values are anisotropy): 66 and 52
  FP53 displacement (values are anisotropy): 21 and 16
MDM2; Log[Inhibitor] M -4.6
  F-M10 displacement (values are anisotropy): 66 and 55
  FP53 displacement (values are anisotropy): 13 and 14
MDM2; Log[Inhibitor] M -4.9
  F-M10 displacement (values are anisotropy): 62 and 56
  FP53 displacement (values are anisotropy): 14 and 13
MDM2; Log[Inhibitor] M -5.2
  F-M10 displacement (values are anisotropy): 69 and 55
  FP53 displacement (values are anisotropy): 15 and 11
MDM2; Log[Inhibitor] M -5.5
  F-M10 displacement (values are anisotropy): 63 and 51
  FP53 displacement (values are anisotropy): 15 and 18
MDM2; Log[Inhibitor] M -5.8
  F-M10 displacement (values are anisotropy): 63 and 55
  FP53 displacement (values are anisotropy): 15 and 14
MDM2; Log[Inhibitor] M -6.1
  F-M10 displacement (values are anisotropy): 68 and 53
  FP53 displacement (values are anisotropy): 19 and 23
MDM2; Log[Inhibitor] M -6.4
  F-M10 displacement (values are anisotropy): 65 and 54
  FP53 displacement (values are anisotropy): 30 and 27
MDM2; Log[Inhibitor] M -6.7
  F-M10 displacement (values are anisotropy): 64 and 54
  FP53 displacement (values are anisotropy): 43 and 49
MDM2; Log[Inhibitor] M -7.0
  F-M10 displacement (values are anisotropy): 64 and 51
  FP53 displacement (values are anisotropy): 56 and 61
MDM2; Log[Inhibitor] M -7.3
  F-M10 displacement (values are anisotropy): 64 and 50
  FP53 displacement (values are anisotropy): 64 and 66
MDM2; Log[Inhibitor] M -7.6
  F-M10 displacement (values are anisotropy): 67 and 53
  FP53 displacement (values are anisotropy): 64 and 68
MDM2; Log[Inhibitor] M -7.9
  F-M10 displacement (values are anisotropy): 61 and 50
  FP53 displacement (values are anisotropy): 66 and 67
MDM2; Log[Inhibitor] M -8.2
  F-M10 displacement (values are anisotropy): 66 and 47
  FP53 displacement (values are anisotropy): 65
MDM2; Log[Inhibitor] M -8.5
  F-M10 displacement (values are anisotropy): 66 and 47
  FP53 displacement (values are anisotropy): 69 and 66

## nutlin-3a [reference compound]
MDM2; FP competition experiment
  competition with fluorescein conjugate of M10 for MDM2 binding: did not compete
